Measurements: US20040214184A1, “Small peptides capable of modulating the function of cd66 (ceacam) family members” (priority 2001, published 2004)
“Also recorded” adds a separate entry of the source.

Test system: T-cells
Assay: T-cell activation assay (anti-CD3 stimulated proliferation, 3H-Tdr incorporation)
Format: cell-based
Details: for activity in the T-cell activation assay (T-cell activation by anti-CD3, proliferation quantitated by 3H-Tdr incorporation): 30 min preincubation, anti-CD3 0.3 μg/ml, 56 h then 16 h with 3H-Tdr
Protocol: FIG. 1. Effects of CD66a peptides on T-cell activation by anti-CD3. T-cells were added to media containing the indicated CD66a peptide S28 ((CD66a-24), (SEQ ID NO:1)) at 150 μg/ml (final concentration) or positive or negative controls in 96 well microtiter plates, and the plates were incubated at 37° C. for 30 min in 5% CO2. Media containing anti-CD3 anitbody was then added and the cells were incubated at […] for 56 hours. Twenty μL of media containing 1 μCi of ^3H-Tdr was then added to each well and the plates were incubated at 37° C. for 30 min in 5% CO2 for an additional 16 hours. The cells were then harvested onto glass fiber filter papers and the radioactivity incorporated into the cells was then determined by liquid scintillation counting. Values are shown as the amount of ^3H-Tdr incorporation in the presence of the indicated peptide as a percent of that incorpoated in the absence of peptide, and represent the means+/−SD of 4 separate determinations.
Cell Preparation. Peripheral blood mononuclear cells (PBMC) were isolated by centrifugation of heparinized blood on a Ficoll/Hypaque (Pharmacia, Uppsala, Sweden) density gradient. Cells from the interface of the gradient were harvested, and resuspended at a concentration of 10^6/ml in medium [RPMI-1640 supplemented with 10% heat inactivated fetal bovine serum, 2 mM L-glutamine, 10 mM HEPES buffer, pH 7.4, 100 U/ml penicillin and 100 ug/ml streptomycin (Gibco, Paisley, U.K.)]. To isolate T-cells, adherent cells were eliminated from PBMC by culture for one hour at 37° C. in 5% CO2 on tissue culture-treated plastic. Remaining B-cells, monocytes, and NK cells were deleted by immunomagnetic negative selection using anti-CD14, anti-CD19, and anti-CD56 microbeads per the manufacturer's recommendations (Miltenyi Biotec GMBH, Bergisch Gladbach, Germany). The purity of the isolated T-cells was >90% as assessed by flow cytometry using FITC-labeled anti-CD3 (Pharmingen, Hamburg, Germany).
T-cell activation assay. Purified T-cells (1×10^5/well) were plated into flat-bottomed 96 well microtiter plates (Greiner, Frickenhausen, Germany) and peptides were added at the indicated concentration. T-cells were incubated with the peptides for 30 min and then stimulated by adding 0.3 μg/ml of anti-CD3 mAb (Pharmingen). The cells were then incubated at 37° C. in 5% CO2 for 56 hours. One μCi of tritiated thymidine (3H-Tdr) (Amersham Buchler, Braunschweig, Germany) in 20 μl of RPMI-1640 was then added to each well, and the cells were cultured for another 16 hours. Cells were then harvested with a cell harvester (Pharmacia LKB-Wallac) onto glass fiber filter paper in a minifold filtration unit (Wallac, Turku, Finland). Individual filters were dissolved in scintillation fluid, and ^3H-Tdr incorporation was measured with a liquid scintillation counter (Pharmacia).

Substance	activity in the T-cell activation assay (T-cell activation by anti-CD3, proliferation quantitated by 3H-Tdr incorporation) (peptide 150 μg/ml)	T-cell proliferation (3H-Tdr incorporation) in the presence of peptide compared with media alone (positive control) (peptide 150 μg/ml, anti-CD3 stimulation, 4 determinations, p<0.05)	cell proliferation (3H-Tdr incorporation) in the presence of peptide compared with the 2 scrambled peptides S159 and S160 (peptides 150 μg/ml, anti-CD3 stimulation, 4 determinations, p<0.05)
IRWFFKN [Peptide S182, smaller part (right) of peptide S28]	had activity	–	–
TGISIRW [Peptide S181, smaller part (middle) of peptide S28]	had activity	–	–
TNDTGIS [Peptide S180, smaller part (left) of peptide S28]	had activity	–	–
TNDTGISIRWFFKN [Peptide S28, 14-amino-acid peptide derived from CD66a]	inhibited T-cell activation by anti-CD3 compared with control; also recorded: found to have activity; also recorded: potent inhibitor of T-cell activation	statistically less than that observed with media alone	statistically less than that observed with the 2 scrambled peptides
